Columns and labels:
[1] = target: Cholinesterase (Homo sapiens, UniProt P06276); experiment: Inhibitory concentration against human butyrylcholinesterase
[2] = target: Acetylcholinesterase (Homo sapiens, UniProt P22303); experiment: Inhibitory concentration against human Acetylcholinesterase
[3] = Inhibitory ratio for bovine acetylcholinesterase and equine butyrylcholinesterase
[4] = target: T1, Acetylcholinesterase (Bos taurus, UniProt P23795)
T1 sequence (P23795 whole entry): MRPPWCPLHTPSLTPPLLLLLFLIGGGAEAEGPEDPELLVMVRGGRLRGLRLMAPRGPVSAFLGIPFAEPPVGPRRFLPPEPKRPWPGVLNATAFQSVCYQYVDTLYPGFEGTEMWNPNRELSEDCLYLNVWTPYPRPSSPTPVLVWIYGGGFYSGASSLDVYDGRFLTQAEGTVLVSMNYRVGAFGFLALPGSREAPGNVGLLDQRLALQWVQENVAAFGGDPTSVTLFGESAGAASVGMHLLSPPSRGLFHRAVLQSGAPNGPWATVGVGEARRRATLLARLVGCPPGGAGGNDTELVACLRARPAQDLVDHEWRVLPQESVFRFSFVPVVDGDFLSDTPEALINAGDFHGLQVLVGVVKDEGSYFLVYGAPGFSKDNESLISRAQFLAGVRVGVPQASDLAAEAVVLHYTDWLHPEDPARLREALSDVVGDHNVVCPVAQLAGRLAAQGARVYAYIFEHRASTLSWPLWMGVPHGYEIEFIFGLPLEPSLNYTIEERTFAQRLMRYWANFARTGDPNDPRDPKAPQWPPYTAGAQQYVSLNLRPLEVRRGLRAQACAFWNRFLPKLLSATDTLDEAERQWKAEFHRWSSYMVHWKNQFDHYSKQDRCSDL
Description: Dissociation constant for inhibition of fetal bovine serum Acetylcholinesterase

[5] = target: Butyrylcholinesterase (Equus caballus, UniProt Q9N1N9)
Chain of Butyrylcholinesterase (Q9N1N9 whole entry): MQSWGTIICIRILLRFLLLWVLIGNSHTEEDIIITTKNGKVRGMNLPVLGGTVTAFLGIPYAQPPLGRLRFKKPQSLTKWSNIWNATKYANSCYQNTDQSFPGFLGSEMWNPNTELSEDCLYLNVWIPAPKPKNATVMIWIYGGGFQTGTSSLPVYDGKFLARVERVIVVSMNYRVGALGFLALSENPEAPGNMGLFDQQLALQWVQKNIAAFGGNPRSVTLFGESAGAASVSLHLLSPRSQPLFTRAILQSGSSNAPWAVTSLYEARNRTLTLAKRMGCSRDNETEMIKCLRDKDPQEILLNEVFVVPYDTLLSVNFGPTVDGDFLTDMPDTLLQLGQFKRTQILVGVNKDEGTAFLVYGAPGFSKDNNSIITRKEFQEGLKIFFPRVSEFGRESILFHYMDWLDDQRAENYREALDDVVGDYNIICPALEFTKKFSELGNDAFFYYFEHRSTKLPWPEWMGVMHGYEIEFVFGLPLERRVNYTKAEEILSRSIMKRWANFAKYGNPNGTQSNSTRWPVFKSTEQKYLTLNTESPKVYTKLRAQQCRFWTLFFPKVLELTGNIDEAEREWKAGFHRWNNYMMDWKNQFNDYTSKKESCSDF
Description: Dissociation constant for inhibition of equine Butyrylcholinesterase (BuChE)

Chain of Cholinesterase (P06276 whole entry): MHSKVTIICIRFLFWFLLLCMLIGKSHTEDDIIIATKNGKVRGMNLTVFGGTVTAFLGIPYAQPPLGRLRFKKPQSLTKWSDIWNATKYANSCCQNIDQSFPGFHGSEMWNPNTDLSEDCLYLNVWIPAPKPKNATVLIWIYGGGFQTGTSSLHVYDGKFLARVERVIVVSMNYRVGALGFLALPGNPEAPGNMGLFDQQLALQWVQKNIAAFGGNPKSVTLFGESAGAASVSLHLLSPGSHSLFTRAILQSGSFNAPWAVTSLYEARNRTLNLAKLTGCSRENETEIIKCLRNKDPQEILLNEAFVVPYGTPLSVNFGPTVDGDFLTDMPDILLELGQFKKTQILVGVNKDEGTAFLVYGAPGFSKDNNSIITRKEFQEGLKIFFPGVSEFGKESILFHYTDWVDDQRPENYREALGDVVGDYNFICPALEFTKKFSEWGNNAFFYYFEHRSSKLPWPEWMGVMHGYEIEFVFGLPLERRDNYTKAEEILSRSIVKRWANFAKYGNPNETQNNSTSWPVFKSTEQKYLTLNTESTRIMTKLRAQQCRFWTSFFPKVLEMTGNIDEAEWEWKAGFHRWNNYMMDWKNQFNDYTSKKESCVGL
Chain of Acetylcholinesterase (Homo sapiens, UniProt P22303) (P22303 whole entry): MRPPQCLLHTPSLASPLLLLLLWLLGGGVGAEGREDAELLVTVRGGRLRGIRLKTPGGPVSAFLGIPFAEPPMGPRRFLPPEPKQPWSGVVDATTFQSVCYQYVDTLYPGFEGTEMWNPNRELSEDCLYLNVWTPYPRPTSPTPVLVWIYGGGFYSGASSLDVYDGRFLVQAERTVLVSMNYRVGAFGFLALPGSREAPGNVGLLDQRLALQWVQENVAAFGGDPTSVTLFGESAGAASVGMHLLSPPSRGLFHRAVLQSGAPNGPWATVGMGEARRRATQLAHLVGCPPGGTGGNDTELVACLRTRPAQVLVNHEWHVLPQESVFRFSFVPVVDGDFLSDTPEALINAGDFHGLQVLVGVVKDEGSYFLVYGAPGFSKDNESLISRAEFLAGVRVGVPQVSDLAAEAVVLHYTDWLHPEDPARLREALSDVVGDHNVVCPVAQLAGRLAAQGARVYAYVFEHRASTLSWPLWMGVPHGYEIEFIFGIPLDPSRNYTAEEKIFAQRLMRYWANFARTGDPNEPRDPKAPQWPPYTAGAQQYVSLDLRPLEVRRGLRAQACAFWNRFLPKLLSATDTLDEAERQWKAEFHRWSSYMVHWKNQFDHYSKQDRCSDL

Molecule `CN(CCCNc1c2c(nc3ccccc13)CCCC2)CCCNc1c2c(nc3ccccc13)CCCC2` has an IC50 [1] of 10.4 nM, an IC50 [2] of 0.3 nM and a Ratio [3] of 0.01.

For `OCCN(CCCNc1c2c(nc3ccccc13)CCCC2)CCCNc1c2ccccc2nc2ccccc12`, the Ratio [3] was 0.2, the Ki [4] was 0.65 nM and the Ki [5] was 3.3 nM.

For `c1ccc2c(NCCCCCNc3c4c(nc5ccccc35)CCCC4)c3c(nc2c1)CCCC3`, the Ratio [3] was 2.1, the Ki [4] was 210 nM and the Ki [5] was 100 nM.

Work on `CC(=O)N(CCCNc1c2c(nc3ccccc13)CCCC2)CCCNc1c2ccccc2nc2ccccc12` yielded an IC50 [1] of 3.9 nM, a Ratio [3] of 750 and a Ki [4] of 1500 nM. It also gave a Ki [5] of 2 nM.

Molecule `CN(CCCNc1c2c(nc3ccccc13)CCCC2)CCCSc1c2c(nc3ccccc13)CCCC2` has a Ratio [3] of 2.2, a Ki [4] of 9.1 nM and a Ki [5] of 4.2 nM.

`C=CCN(CCCNc1c2c(nc3ccccc13)CCCC2)CCCNc1c2ccccc2nc2ccccc12` gave a Ratio [3] of 2.1, a Ki [4] of 1.6 nM and a Ki [5] of 0.76 nM.

Molecule `c1ccc2c(NCCCCCCCCCSc3c4c(nc5ccccc35)CCCC4)c3c(nc2c1)CCCC3` has a Ratio [3] of 86, a Ki [4] of 195 nM and a Ki [5] of 2.3 nM.

`CC(=O)N(CCCCSc1c2c(nc3ccccc13)CCCC2)CCCNc1c2c(nc3ccccc13)CCCC2` showed a Ratio [3] of 427, a Ki [4] of 47 nM and a Ki [5] of 0.11 nM.

In the case of `c1ccc2c(NCCCCCCCSc3c4c(nc5ccccc35)CCCC4)c3c(nc2c1)CCCC3`, the Ratio [3] is reported as 9.7.

For `c1ccc2c(NCCCCCCCCSc3c4c(nc5ccccc35)CCCC4)c3c(nc2c1)CCCC3`, the IC50 [1] was 0.77 nM and the Ratio [3] was 625.

With `CC(=O)N(CCCNc1c2c(nc3ccccc13)CCCC2)CCCSc1c2c(nc3ccccc13)CCCC2` the Ratio [3] was 217, the Ki [4] was 50 nM and the Ki [5] was 0.23 nM.

`CN(CCCCSc1c2c(nc3ccccc13)CCCC2)CCCNc1c2c(nc3ccccc13)CCCC2` gave a Ratio [3] of 191, a Ki [4] of 130 nM and a Ki [5] of 0.68 nM.

Work on `CCN(CC)C(C)CN1c2ccccc2Sc2ccccc21` (stereo not given) [ETHOPROPAZINE] yielded a Ki [5] of 20 nM.
